Data set [1] in a line: Water solubility of the powder. The class given is physicochemical. The following applies: in words.
The subject of data set [2] is plasmid DNA damaged by OH° radical (hydrogen peroxide + UVB). The data set can be described thus: "3D" test (Damaged DNA Detection): protection of DNA against OH° radicals. The class given is biochemical. The following applies: for Specific protection: OH° radical. Here is the method:
The free-radical-scavenging effects of the phloridzin-rich polyphenolic fractions obtained according to the process of the invention were measured in vitro by the “3D” test (Damaged DNA Detection, Analytical Biochemistry, (1995), pp. 37-42).
The principle is based on repairing DNA lesions, the damaged DNA being used as a marker of protective efficacy of the test molecules with respect to free OH^∘ radicals: the reduction in lesions observed on the DNA is correlated with the trapping of the free radicals.
This test carried out on plasmid DNA allows the detection of genotoxic agents at the early stage of the lesion-mutation-cancerization process. Molecules or mixtures with antioxidant or free-radical-scavenging properties, which can thus protect a human cell from oxidative damage caused by reactive oxygenated species (ROSs), can thus be detected.
The protocol was as follows: • the target DNA was adsorbed onto sensitized wells and then incubated with genotoxic agents in the presence or absence of the polyphenolic extract to be tested (dissolved in an ethanol solution at 2% or in DMSO) or in the presence of catechin (control). In this test, the OH^∘ radical produced by homolytic cleavage of hydrogen peroxide was used as DNA-damaging genotoxic agent. The hydrogen peroxide was added to the wells, which were then irradiated with UVB rays (700 J/m^2). Furthermore, a positive repair control consisting of a plasmid DNA predamaged with ultraviolet C radiation was added; • a step of washing with ultrapure water and then with a dioxane solution at 20% in ultrapure water for 5 minutes at 30° C. with gentle stirring made it possible to remove the non-specific interactions between the sample and the test, due to the presence of macromolecules such as proteins that may interfere with the repair signal; • a repair step was performed in the presence of purified cell extracts (which contain the active enzymes of the various DNA lesion repair pathways) and of biotin-coupled modified nucleotides (dUTP). The repair of the lesions involved a phase of excision of the lesions followed by a resynthesis of the DNA fragment or of excised bases. […] The light signal observed and read on the luminometer was proportional to the amount of lesions repaired.
The percentage of protection observed in the presence of ROSs was calculated as the relative reduction of the lesional effect due to the OH^∘ species, that is to say: % protection={[RLU oxidant−RLU (oxidant+sample)]/RLU oxidant}×100 • where RLU=relative light units (arbitrary units of quantity of light).
The specific percentage of protection was corrected by the percentage of non-specific inhibition measured on the samples predamaged with UVC. It is an indication of the free-radical-scavenging activity due to the only added extracts.
The IC50 is the concentration in mg/ml of test product which gives 50% protective activity against the genotoxic agent OH^∘. The lower the value, the greater the antioxidant activity of the test product.

In US7427418B2, “Phloridzin-rich phenolic fraction and use thereof as a cosmetic, dietary or nutraceutical agent” (Diana Ingredients S.A., priority 2001, dated 2008) one finds Water solubility, Specific protection and IC50 data, which are given here for two compounds.

For `O=C(CCc1ccc(O)cc1)c1c(O)cc(O)cc1O` [phloretin], the Water solubility result in data set [1] is listed as “very low solubility”.

For Catechin, the Specific protection in data set [2] (concentration 0.016 mg/ml) stood at 16%; in data set [2] (concentration 0.06 mg/ml) it was 28%; in data set [2] (concentration 0.25 mg/ml), 52%; in data set [2] (concentration 1 mg/ml) it was 65%. Moreover, in data set [2] (concentration giving 50% protective activity against the genotoxic agent OH°), the IC50 (as a rule, the concentration at which inhibition is half-maximal) came out at 240 µg/mL.
